In article PMC4735261, “Identification of DYRK1B as a substrate of ERK1/2 and characterisation of the kinase activity of DYRK1B mutants from cancer and metabolic syndrome” (Cellular and Molecular Life Sciences: CMLS, 2015):

Target: T1, DYRK1B (Homo sapiens, UniProt Q9Y463)
T1 construct: Recombinant DYRK1B expressed in insect cells (Carna Biosciences)
Assay: in vitro enzyme assay; MRM mass spectrometry of autophosphorylation sites
Assay type: biochemical

T1 sequence (Q9Y463 whole entry): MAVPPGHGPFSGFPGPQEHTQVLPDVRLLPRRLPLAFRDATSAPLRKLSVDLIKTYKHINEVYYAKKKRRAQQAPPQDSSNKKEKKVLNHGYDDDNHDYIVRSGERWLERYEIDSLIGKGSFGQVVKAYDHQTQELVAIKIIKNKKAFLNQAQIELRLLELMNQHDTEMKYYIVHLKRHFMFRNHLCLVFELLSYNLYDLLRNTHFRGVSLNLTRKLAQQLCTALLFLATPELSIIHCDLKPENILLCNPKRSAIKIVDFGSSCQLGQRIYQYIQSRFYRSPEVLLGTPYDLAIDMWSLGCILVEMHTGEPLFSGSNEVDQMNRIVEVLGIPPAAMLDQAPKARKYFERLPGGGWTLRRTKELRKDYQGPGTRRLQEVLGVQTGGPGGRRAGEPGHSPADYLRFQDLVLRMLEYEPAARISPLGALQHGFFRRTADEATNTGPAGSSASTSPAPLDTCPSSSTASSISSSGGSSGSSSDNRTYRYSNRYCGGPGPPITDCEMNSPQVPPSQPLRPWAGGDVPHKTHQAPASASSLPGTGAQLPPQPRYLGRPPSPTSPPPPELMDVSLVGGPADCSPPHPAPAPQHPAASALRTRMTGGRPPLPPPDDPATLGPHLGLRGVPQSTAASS

## AZ’294
  IC50: < 30 nM
